One data set deals with RCC4 cells. As to the kind of experiment: XTT assay in VHL-deficient RCC4 cells. It is filed as cell-based. The conditions noted are these: Homo sapiens, 96 h, XTT assay, VHL-deficient RCC4 cells, four days. As for the experimental part:
(§1) Cell Viability and XTT assays. For cell viability, 100,000 cells were plated in a 12-well plate. The following day, 1.25 μM STF-62247 was added in the presence or absence of 1 mM 3-MA for 24 hours at 37° C. Cells were trypsinized and counted by trypan blue exclusion. For XTT assays, 5000 RCC4 with and without VHL cells or 2,500 SN12C with and without VHL shRNA cells were plated in 96-well plates. The following day, vehicle (DMSO), STF-62247 or each of 19 analogs were added to media by serial dilution. Four days later, the media was aspirated and XTT solution containing 0.3 mg/ml of XTT (Sigma Chemical Co) in Phenol Red-free media, 20% FCS and 2.65 mg/ml N-methyl dibenzopyrazine methyl sulfate (PMS) was added to the cells and incubated at 37° C. for 1-2 hours. Metabolism of XTT was quantified by measuring the absorbance at 450 nm on a plate reader.

The test system of a further data set is RCC4/VHL cells. As to the kind of experiment: XTT assay, RCC4/VHL versus RCC4 cells (selectivity ratio). The format is cell-based. Conditions: selectivity ratio, IC50 in RCC4/VHL cells/IC50 in RCC4 cells. As for the experimental part: as §1
A. RCC4 and RCC4/VHL were treated with 1.25 μM of each 19 analogs for 20 hours and the presence of vacuoles was examined under light microscopy. B. Western blot for LC3 after treatment with each compound. Tubulin was used as loading control. Ratio is the relative from the IC50 in RCC4/VHL cells/IC50 in RCC4 cells. C. Acidic vesicle organelles (AVO) measured by FACS analysis in cells treated with 1.25 μM of STF-62247 or with compounds 21, 15, 25, 47, and 53 and stained with acridine orange.
(Formazan colour is commonly taken as a measure of viable cells.)

pIC50: −log10 of the molar value.

As a reminder, the melting point is the temperature of the solid-liquid transition. For `COc1ccc(Nc2nc(-c3ccncc3)cs2)cc1O` [Compound 51, 2-Methoxy-5-{[4-(4-pyridinyl)-1,3-thiazol-2-yl]amino}phenol], the melting point was in the range of 230 to 232 °C. As a reminder, the pIC50 is the IC50 on a negative log10 scale, so that one unit is a factor of ten. Turning to `Cc1cccc(Nc2nc(-c3ccncc3)c(C(N)=O)s2)c1` [Compound 91, 2-[(3-Methylphenyl)amino]-4-(4-pyridinyl)-1,3-thiazole-5-carboxamide], in the data set on RCC4 cells (Table 1), the pIC50 is 4.72. In the data set with RCC4/VHL cells (Table 1), the Ratio is reported as >2.0.

Regarding `Cc1cccc(Nc2nc(-c3ccncc3)c(C(=O)N(C)C)s2)c1` [Compound 92, N,N-Dimethyl-2-[(3-methylphenyl)amino]-4-(4-pyridinyl)-1,3-thiazole-5-carboxamide], the pIC50 in the data set on RCC4 cells (Table 1) is 4.80. For the same compound, the Ratio in the data set on RCC4/VHL cells (Table 1) is >2.5. The like results for `Cc1cccc(N(C)c2nc(-c3ccncc3)cs2)c1` [Compound 95, N-Methyl-N-(3-methylphenyl)-4-(4-pyridinyl)-1,3-thiazol-2-amine] were, in that order, 4.55 and 0.6. The like results for `CCN(c1cccc(C)c1)c1nc(-c2ccncc2)cs1` [Compound 96, N-Ethyl-N-(3-methylphenyl)-4-(4-pyridinyl)-1,3-thiazol-2-amine] were, in that order, 4.40 and 0.6. The like results for `Oc1ccccc1Nc1nc(-c2ccncc2)cs1` [Compound 107, 2-{[4-(4-Pyridinyl)-1,3-thiazol-2-yl]amino}phenol] were, in that order, 4.89 and >3.1. In the data set with RCC4 cells (Table 1), `COc1ccccc1Nc1nc(-c2ccncc2)cs1` [Compound 109, N-(2-Methoxyphenyl)-4-(4-pyridinyl)-1,3-thiazol-2-amine] had a pIC50 of 4.48. Also, the Ratio with RCC4/VHL cells (Table 1) was >1.2. The like results for `Fc1ccccc1Nc1nc(-c2ccncc2)cs1` [Compound 113, N-(2-Fluorophenyl)-4-(4-pyridinyl)-1,3-thiazol-2-amine] were, in that order, 4.84 and >2.8.

As to `Clc1ccccc1Nc1nc(-c2ccncc2)cs1` [Compound 115, N-[2-Chlorophenyl]-4-(4-pyridinyl)-1,3-thiazol-2-amine], the pIC50 with RCC4 cells (Table 1) was 4.56. For the same compound, the Ratio in the data set with RCC4/VHL cells (Table 1) is recorded as >1.4. The like results for `Brc1cccc(Nc2nc(-c3ccncc3)cs2)c1` [Compound 123, N-(3-Bromophenyl)-4-(4-pyridinyl)-1,3-thiazol-2-amine] were, in that order, 4.91 and >3.2. The like results for `CC(=O)c1cccc(Nc2nc(-c3ccncc3)cs2)c1` [Compound 125, 1-(3-{[4-(4-Pyridinyl)-1,3-thiazol-2-yl]amino}phenyl)ethanone] were, in that order, 4.89 and >3.1.

In turn, `CC(=O)c1ccc(Nc2nc(-c3ccncc3)cs2)cc1` [Compound 131, 1-(4-{[4-(4-Pyridinyl)-1,3-thiazol-2-yl]amino}phenyl)ethanone] showed a pIC50 in the data set on RCC4 cells (Table 1) of 5.42. The Ratio in the data set on RCC4/VHL cells (Table 1) was 3.1. In the data set on RCC4 cells (Table 2), `COc1cc(-c2csc(Nc3cccc(C)c3)n2)ccn1` [Compound 141, N-{4-[2-(Methyloxy)-4-pyridinyl]-1,3-thiazol-2-yl}-N-(3-methylphenyl)amine] had a pIC50 of 4.54. The Ratio in the data set on RCC4/VHL cells (Table 2) was 1.2. The like results for `Cc1cccc(Nc2nc(-c3ccnc(F)c3)cs2)c1` [Compound 149, 4-(2-Fluoro-4-pyridinyl)-N-(3-methylphenyl)-1,3-thiazol-2-amine] were, in that order, 5.35 and >8.9.

With `Cc1cccc(Nc2nc(-c3ccnc(Cl)c3)cs2)c1` [Compound 150, 4-(2-Chloro-4-pyridinyl)-N-(3-methylphenyl)-1,3-thiazol-2-amine], the pIC50 with RCC4 cells (Table 2) is 5.66. Further, in the data set with RCC4/VHL cells (Table 2), the Ratio amounted to 3.8.

Regarding `Cc1cccc(Nc2nc(-c3ccnc(Br)c3)cs2)c1` [Compound 154, 4-(2-Bromo-4-pyridinyl)-N-(3-methylphenyl)-1,3-thiazol-2-amine], the pIC50 with RCC4 cells (Table 2) was 5.41. Besides, the Ratio in the data set with RCC4/VHL cells (Table 2) is given as >10. In the same order, the values of `Cc1cccc(Nc2nc(-c3cc(Cl)nc(Cl)c3)cs2)c1` [Compound 158, N-[4-(2,6-Dichloro-4-pyridinyl)-1,3-thiazol-2-yl]-N-(3-methylphenyl)amine] are 4.82 and 2.3. The like results for `C#Cc1cc(-c2csc(Nc3cccc(C)c3)n2)ccn1` [Compound 159, 4-(2-Ethynyl-4-pyridinyl)-N-(3-methylphenyl)-1,3-thiazol-2-amine] were, in that order, 4.75 and >2.2.

For the compound `CCc1cc(-c2csc(Nc3cccc(C)c3)n2)ccn1` [Compound 160, 4-(2-Ethyl-4-pyridinyl)-N-(3-methylphenyl)-1,3-thiazol-2-amine], in the data set on RCC4 cells (Table 2), the pIC50 was 5.19. The Ratio in the data set with RCC4/VHL cells (Table 2) is recorded as >6.3. The like results for `Cc1cccc(Nc2nc(-c3ccnc(C#CCO)c3)cs2)c1` [Compound 161, 3-(4-{2-[(3-Methylphenyl)amino]-1,3-thiazol-4-yl}-2-pyridinyl)-2-propyn-1-ol] were, in that order, 5.03 and 1.6. The like results for `Cc1cccc(Nc2nc(-c3ccnc(CCCO)c3)cs2)c1` [Compound 162, 3-(4-{2-[(3-Methylphenyl)amino]-1,3-thiazol-4-yl}-2-pyridinyl)-1-propanol] were, in that order, 5.28 and >7.7. In the same order, the values of `Cc1cccc(Nc2nc(-c3ccncc3C)cs2)c1` [Compound 166, N-(3-Methylphenyl)-4-(3-methyl-4-pyridinyl)-1,3-thiazol-2-amine] are 5.28 and >7.7. In the data set on RCC4 cells (Table 2), `Cc1cccc(Nc2nc(-c3ccncc3F)cs2)c1` [Compound 170, 4-(3-Fluoro-4-pyridinyl)-N-(3-methylphenyl)-1,3-thiazol-2-amine] gave a pIC50 of 5.70. For the same compound, the Ratio in the data set on RCC4/VHL cells (Table 2) is >20. In the same order, the values of `Cc1cccc(Nc2nc(-c3ccncc3Cl)cs2)c1` [Compound 174, 4-(3-Chloro-4-pyridinyl)-N-(3-methylphenyl)-1,3-thiazol-2-amine] are 5.54 and >13.8.

With `Cc1cccc(Nc2nc(-c3ccncc3Br)cs2)c1` [Compound 178, 4-(3-Bromo-4-pyridinyl)-N-(3-methylphenyl)-1,3-thiazol-2-amine], the pIC50 in the data set on RCC4 cells (Table 2) was 5.41. For the same compound, the Ratio with RCC4/VHL cells (Table 2) is >10.

As to `Cc1cccc(Nc2nc(-c3ccncc3[N+](=O)[O-])cs2)c1` [Compound 181], in the data set on RCC4 cells (Table 2), the pIC50 was 5.09. In the data set on RCC4/VHL cells (Table 2), the Ratio worked out at 4.1.

`CC(=O)Nc1cnccc1-c1csc(Nc2cccc(C)c2)n1` [Compound 183] had a pIC50 in the data set on RCC4 cells (Table 2) of 4.48. In addition, the Ratio in the data set on RCC4/VHL cells (Table 2) is 1.0. The like results for `C#Cc1cnccc1-c1csc(Nc2cccc(C)c2)n1` [Compound 184, 4-(3-Ethynyl-4-pyridinyl)-N-(3-methylphenyl)-1,3-thiazol-2-amine] were, in that order, 5.87 and 4.4. Consider `CCc1cnccc1-c1csc(Nc2cccc(C)c2)n1` [Compound 185, 4-(3-Ethyl-4-pyridinyl)-N-(3-methylphenyl)-1,3-thiazol-2-amine], for which the pIC50 in the data set on RCC4 cells (Table 2) was 5.21. In the data set on RCC4/VHL cells (Table 2), the Ratio is given as 2.8. In the same order, the values of `Cc1cccc(Nc2nc(-c3ccncc3C#CCO)cs2)c1` [Compound 186, 3-(4-{2-[(3-Methylphenyl)amino]-1,3-thiazol-4-yl}-3-pyridinyl)-2-propyn-1-ol] are 6.62 and 11.9. As to `Cc1cccc(Nc2nc(-c3ccncc3CCCO)cs2)c1` [Compound 187, 3-(4-{2-[(3-Methylphenyl)amino]-1,3-thiazol-4-yl}-3-pyridinyl)-1-propanol], the pIC50 with RCC4 cells (Table 2) was 5.17. In addition, the Ratio in the data set on RCC4/VHL cells (Table 2) was >5.9. In the same order, the values of `Cc1cccc(Nc2nc(-c3ccnc4ccccc34)cs2)c1` [Compound 192, N-(3-Methylphenyl)-4-(4-quinolinyl)-1,3-thiazol-2-amine] are 4.91 and 1.6. Turning to `Cc1cccc(Nc2nc(-c3cc(-c4ccccc4)nc4ccccc34)cs2)c1` [Compound 194, N-(3-Methylphenyl)-4-(2-phenyl-4-quinolinyl)-1,3-thiazol-2-amine], the pIC50 with RCC4 cells (Table 2) is 4.60. Besides, the Ratio with RCC4/VHL cells (Table 2) is listed as >1.6. As to `Cc1cccc(Nc2nc(-c3ccncc3)c[nH]2)c1` [Compound 196, N-(3-Methylphenyl)-4-(4-pyridinyl)-1H-imidazol-2-amine], the melting point lay in the range of 170 to 171 °C. On the same count and under the same terms, in the case of `Cc1cccc(Nc2nc(-c3ccnc(N4CCOCC4)c3)cs2)c1` [Compound 197, N-(3-Methylphenyl)-4-[2-(4-morpholinyl)-4-pyridinyl]-1,3-thiazol-2-amine] it was 190 to 191 °C; in that of `Cc1cccc(Nc2nc(-c3ccnc(N4CCN(C)CC4)c3)cs2)c1` [Compound 198, N-(3-Methylphenyl)-4-[2-(4-methyl-1-piperazinyl)-4-pyridinyl]-1,3-thiazol-2-amine], 141 to 143 °C.

The record behind these values is US20110105436A1, “HETEROARYL COMPOUNDS, COMPOSITIONS, AND METHODS OF USE IN CANCER TREATMENT” (AUCKLAND UNISERVICES LIMITED, priority 2008, published 2011).
